Laboratory results published in patent US20150193597A1, “PHARMACEUTICAL PRODUCT AND COMMUNICATION TOOL” (priority 2012, published 2015).

How the values were obtained:
[1] = Study 3: Lyrica combination product in generalized anxiety disorder (GAD), perceived symptoms, side effects, quality of life, adherence; conditions: Patient 3 (only PP); for Anxiety Daytime / Anxiety Evening/Night / Fatigue / Muscle tension Daytime / Muscle tension Evening/Night: average VAS 0-10; for Dizziness / Dry month / Nausea: frequency of Yes answers; for Quality of Life: average VAS 0-10, 10 = Extremely good
Method: Three patients participated in the study, where two of them were given the combination product, A+B, and the third was given the PP, A. All three patients were using an evaluation tool in order to capture the continuous data concerning their current health situation. Prior to entering the study none of the patients had used either the PP or the CPP.
Length of study: 2 months.
The two patients using the combination product were evaluated against the one patient using only the PP and being treated according to ordinary health care in Sweden.
Due to the specific and profound study objectives, detailed outcome and behavior during the study period from the patients were evaluated against each other. The measurements of the patient outcomes were evaluated for each patient in different time phases during the treatment period.
In order to measure the appropriate patient outcome, the patients were continuously followed-up. […] The used QFM for the patients in the intervention group, patient 1 and 2: • 1. Set of questions. • 2. Set of functions generating individual and patient specific feedback information. • 3. Feedback based upon the individual patient specific feedback information.
The used set of questions for the patient in the control group, patient 3: • 1. Set of questions similar to the intervention group in order to capture patient reported outcome data • 2. No set of functions. • 3. No feedback information or feedback.
The measured variables (see table 19) were symptom and side effect levels which were perceived estimates by each patient at every measure point. The change in levels of symptoms and side effects between different measured times were used for comparisons. Symptoms and side effects are many times closely related in GAD. In this study anxiety, fatigue, and muscle tension were defined as symptoms while dizziness, nausea, and dry mouth were considered as side effects. This study focused on the overall clinical effect and patient safety aspects therefore it was not crucial to the results if a measured variable could have been defined differently.

[2] = test period when patient only was taking Zoloft (two months)
Source text: Test objectives; improve cardiovascular and diabetes symptoms through an increased well-being from improved adherence to Zoloft, initiating primarily an improved level of physical activity • b. Follow-up variables: Weight and HbA1c • c. Period of time using the combination product: Five months. • d. Period of time using only the pharmaceutical, i.e. no combination product, prior to the period of using the combination product: Two months • e. Period of time using only the software application, after the period of using the combination product: Two weeks
The individual goal was set-up by the patient by answering the following question: “Give your own personal goal for the physical activity in number of minutes for one week”. • The patient was then asked to continuously answer a question like the following: “I have been exercising the following number of minutes today: [number]”. • Weight/BMI: • The patient was asked to answer a question regarding his/her actual weight. • Depression and Anxiety, respectively: • The patient was asked to register the actual level of perceived depression respectively actual level of perceived anxiety at predefined occasions every second day. It was also possible for the patient to answer the question when he/she wanted. […]

[3] = test period when patient was only taking Metformin (two months)
Method: Follow-up variables: HbA1c • c. Period of time using the combination product: Three months. • d. Period of time using only the pharmaceutical, i.e. no combination product, prior to the period of using the combination product: Two months
Metformin was the following: • Adherence to Metformin: • The patient was asked to answer a question whether or not he/she had been adherent to Metformin, and which dose the patient took; “I have taken my Metformin today with the daily dose of 500 mg/1000 mg/1500 mg/2000 mg/2500 mg or 3000 mg”. • Physical activity: • The patient was asked to continuously answer a question like the following: “I have been exercising the following number of minutes today: [number]”. • Weight/BMI: • The patient was asked to answer a question regarding his/her actual weight. • Blood glucose: • The patient was asked to register his/her measured blood glucose, when he/she had measured it. It was possible for the patient to change or update already registered answers. • HbA1c: • The patient was asked to register his/her HbA1c after it had been measured at a clinic. • A possible adverse event for Metformin: • “Have you experienced unexpected loss of weight, severe nausea or vomiting (malaise), uncontrolled sudden pain when breathing or abdominal? […] Extremely much versus Nothing at all” according to a VAS structure

CC(C)C[C@H](CN)CC(=O)O [A, pregabalin]
Anxiety Daytime ([1]; 1st phase): 3.5 | Anxiety Evening/Night ([1]; 1st phase): 2.8 | Fatigue ([1]; 1st phase): 5.4 | Muscle tension Daytime ([1]; 1st phase): 6.3 | Muscle tension Evening/Night ([1]; 1st phase): 3.9 | Dizziness ([1]; 1st phase): 13% | Dry month ([1]; 1st phase): 0% | Nausea ([1]; 1st phase): 38% | Anxiety Daytime ([1]; 2nd phase): 3.0 | Anxiety Evening/Night ([1]; 2nd phase): 2.9 | Fatigue ([1]; 2nd phase): 5.0 | Muscle tension Daytime ([1]; 2nd phase): 7.8 | Muscle tension Evening/Night ([1]; 2nd phase): 7.4 | Dizziness ([1]; 2nd phase): 0% | Dry month ([1]; 2nd phase): 0% | Nausea ([1]; 2nd phase): 11% | Anxiety Daytime, Change ([1]; 2nd vs 1st phase): −0.5 | Anxiety Evening/Night, Change ([1]; 2nd vs 1st phase): 0.1 | Dizziness, Change ([1]; 2nd vs 1st phase): −13 p.p. | Dry month, Change ([1]; 2nd vs 1st phase): 0 p.p. | Fatigue, Change ([1]; 2nd vs 1st phase): −0.4 | Muscle tension Daytime, Change ([1]; 2nd vs 1st phase): 1.5 | Muscle tension Evening/Night, Change ([1]; 2nd vs 1st phase): 5.5 | Nausea, Change ([1]; 2nd vs 1st phase): −27 p.p. | Anxiety Daytime ([1]; 3rd phase): 1.9 | Anxiety Evening/Night ([1]; 3rd phase): 1.8 | Fatigue ([1]; 3rd phase): 5.1 | Muscle tension Daytime ([1]; 3rd phase): 7.1 | Muscle tension Evening/Night ([1]; 3rd phase): 7.2 | Dizziness ([1]; 3rd phase): 0% | Dry month ([1]; 3rd phase): 0% | Nausea ([1]; 3rd phase): 0% | Anxiety Daytime, Change ([1]; 3rd vs 2nd phase): −1.1 | Anxiety Evening/Night, Change ([1]; 3rd vs 2nd phase): −1.1 | Dizziness, Change ([1]; 3rd vs 2nd phase): 0 p.p. | Dry month, Change ([1]; 3rd vs 2nd phase): 0 p.p. | Fatigue, Change ([1]; 3rd vs 2nd phase): 0.1 | Muscle tension Daytime, Change ([1]; 3rd vs 2nd phase): −0.7 | Muscle tension Evening/Night, Change ([1]; 3rd vs 2nd phase): −0.3 | Nausea, Change ([1]; 3rd vs 2nd phase): −11 p.p. | Anxiety Daytime ([1]; End period): 2.0 | Anxiety Evening/Night ([1]; End period): 2.5 | Fatigue ([1]; End period): 4.8 | Muscle tension Daytime ([1]; End period): 7.3 | Muscle tension Evening/Night ([1]; End period): 7.4 | Quality of Life ([1]; End period): 2.5 | Dizziness ([1]; End period): 0% | Dry month ([1]; End period): 0% | Nausea ([1]; End period): 0% | Anxiety Daytime, Change ([1]; End vs Start period): −1.8 | Anxiety Evening/Night, Change ([1]; End vs Start period): 0.1 | Dizziness, Change ([1]; End vs Start period): −13 p.p. | Dry month, Change ([1]; End vs Start period): 0 p.p. | Fatigue, Change ([1]; End vs Start period): −0.8 | Muscle tension Daytime, Change ([1]; End vs Start period): 1.4 | Muscle tension Evening/Night, Change ([1]; End vs Start period): 4.0 | Nausea, Change ([1]; End vs Start period): −38 p.p. | Quality of Life, Change ([1]; End vs Start period): 0.5 | Anxiety Daytime ([1]; Start period): 3.8 | Anxiety Evening/Night ([1]; Start period): 2.4 | Fatigue ([1]; Start period): 5.6 | Muscle tension Daytime ([1]; Start period): 5.9 | Muscle tension Evening/Night ([1]; Start period): 3.4 | Quality of Life ([1]; Start period): 2.0 | Dizziness ([1]; Start period): 13% | Dry month ([1]; Start period): 0% | Nausea ([1]; Start period): 38%

CN[C@H]1CC[C@@H](c2ccc(Cl)c(Cl)c2)c2ccccc21 [Zoloft, Sertralin]
HbA1c course [2]: remained stable or slightly increased | weight gain [2]: 1-2%

CN(C)C(=N)N=C(N)N [Metformin]
increase of HbA1c [3]: 7%
